According to patent publication US20210395651A1, “COMPOUNDS STABILIZING HYDROLASES IN LIQUIDS” (BASF SE, priority 2018, published 2021):

Target: T1, Lipolase® 100L (Thermomyces lanuginosus, UniProt O59952)
T1 construct: purchased Sigma-Aldrich
T1 sequence (O59952 23-291): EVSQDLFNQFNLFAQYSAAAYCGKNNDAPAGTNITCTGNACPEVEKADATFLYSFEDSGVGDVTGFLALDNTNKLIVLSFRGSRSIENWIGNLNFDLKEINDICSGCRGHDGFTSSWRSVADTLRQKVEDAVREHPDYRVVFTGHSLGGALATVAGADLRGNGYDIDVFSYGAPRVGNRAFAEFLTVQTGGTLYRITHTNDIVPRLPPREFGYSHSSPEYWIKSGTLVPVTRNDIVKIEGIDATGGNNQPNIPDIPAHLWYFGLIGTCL
Assay: Lipase storage stability in liquid formulations at 37° C. (pNP-valerate activity)
Format: biochemical, Thermomyces lanuginosa
Settings: for lipase activity, 3 d: 3 d storage at 37° C.; for lipase activity, 7 d: 7 d storage at 37° C.; for lipase activity, 14 d: 14 d storage at 37° C.; for lipase activity, 21 d: 21 d storage at 37° C.; for lipase activity, 28 d: 28 d storage at 37° C.; for lipase activity, 35 d: 35 d storage at 37° C.; for lipase activity, T0: relative to 100% value of reference formulation at time 0
Description: The storage stability of Lipase was assessed at 37° C.
Base test formulations were manufactured by making base formulations I to V by mixing the components according to Table 1.
The respective component (a) or comparative compound was added, if applicable, to the respective base formulation in amounts as indicated in Table 1.
Lipase used: Lipolase® 100L (CAS-No. 9001-62-1, EC-No. 232-619-9) was purchased from Sigma-Aldrich.
The amount of lipase as provided in Table 1 refers to active protein.
Water was added to accomplish the balance to 100.
Lipolase activity at certain points in time as indicated in Table 2 was be determined by employing pNitrophenol-valerate (2.4 mM pNP-C5 in 100 mM Tris pH 8.0, 0.01% Triton X100) as a substrate. The absorption at 405 nm was measured at 20° C. every 30 seconds over 5 minutes.
The slope (absorbance increase at 405 nm per minute) of the time dependent absorption-curve is directly proportional to the activity of the lipase.
The […] activity values provided in Table 2 were calculated referring to the 100% value determined in the reference formulation at the time 0.
The nomenclature of formulations is as follows: the Roman number before the full stop characterizes the base formulation, the Arabian number the type of compound (A.# compound according to invention (component (a)); (B.#) comparative compound).

[1] = base formulation I. (Lipolase 0.2 wt%, tested compound 2.5 wt%)
[2] = base formulation III. (Lipolase 0.2 wt%, tested compound 2.0 wt%)
[3] = base formulation IV. (Lipolase 0.2 wt%, tested compound 2.0 wt%)
[4] = base formulation V. (Lipolase 0.2 wt%, tested compound 2.0 wt%)
[5] = base formulation II. (Lipolase 0.2 wt%, tested compound 2.5 wt%)

Row | SMILES | lipase activity, 3 d [1] [%] | lipase activity, 7 d [1] [%] | lipase activity, 14 d [1] [%] | lipase activity, 21 d [1] [%] | lipase activity, 28 d [1] [%] | lipase activity, 35 d [1] [%] | lipase activity, T0 [1] [%] | lipase activity, 3 d [2] [%] | lipase activity, 7 d [2] [%] | lipase activity, 14 d [2] [%] | lipase activity, 21 d [2] [%] | lipase activity, 28 d [2] [%] | lipase activity, 35 d [2] [%] | lipase activity, T0 [2] [%] | lipase activity, 3 d [3] [%] | lipase activity, 7 d [3] [%] | lipase activity, 14 d [3] [%] | lipase activity, 21 d [3] [%] | lipase activity, 28 d [3] [%] | lipase activity, 35 d [3] [%] | further results
1 | CCCOC(=O)CC(O)(CC(=O)OCCC)C(=O)OCCC [A.2, Tripropylcitrate] | 100 | 98 | 94 | 90 | 87 | 82 | 101 | 100 | 101 | 97 | 94 | 90 | 87 | 102 | – | – | – | – | – | – | –
2 | O=C(O)CC(O)(CC(=O)O)C(=O)O [B.1, citric acid, reference compound] | 89 | 81 | 73 | 61 | 50 | 29 | 100 | 92 | 78 | 70 | 51 | 39 | 30 | 102 | 95 | 82 | 70 | 58 | 43 | 36 | lipase activity, T0 [3]: 97%; lipase activity, 3 d [4]: 93%; lipase activity, 7 d [4]: 86%; lipase activity, 14 d [4]: 74%; lipase activity, 21 d [4]: 63%; lipase activity, 28 d [4]: 52%; lipase activity, 35 d [4]: 43%; lipase activity, T0 [4]: 98%
3 | CC(=O)OCC(COC(C)=O)OC(C)=O [B.4, glyceroltriacetate (triacetine), reference compound] | 91 | 84 | 72 | 56 | 45 | 39 | 98 | – | – | – | – | – | – | – | 91 | 82 | 73 | 59 | 50 | 46 | lipase activity, 3 d [5]: 87%; lipase activity, 7 d [5]: 77%; lipase activity, 14 d [5]: 67%; lipase activity, 21 d [5]: 56%; lipase activity, 28 d [5]: 42%; lipase activity, 35 d [5]: 35%; lipase activity, T0 [5]: 95%; lipase activity, T0 [3]: 97%
4 | CCOC(=O)C(=O)OCC [B.3, diethyloxalate, reference compound] | 90 | 80 | 70 | 54 | 45 | 37 | 97 | 94 | 79 | 69 | 50 | 40 | 32 | 98 | 93 | 86 | 74 | 63 | 51 | 46 | lipase activity, T0 [3]: 98%; lipase activity, 3 d [4]: 92%; lipase activity, 7 d [4]: 85%; lipase activity, 14 d [4]: 71%; lipase activity, 21 d [4]: 65%; lipase activity, 28 d [4]: 56%; lipase activity, 35 d [4]: 46%; lipase activity, T0 [4]: 97%
